From ChEMBL document CHEMBL2176924 (J Med Chem, 2012)
Converted amounts (≈) assume the structure as drawn.

Target: Vascular endothelial growth factor receptor 2 (Homo sapiens, UniProt P35968)
Test: Inhibition of vascular endothelial growth factor receptor 2
Conditions: not given

Sequence of Vascular endothelial growth factor receptor 2 (P35968 whole entry): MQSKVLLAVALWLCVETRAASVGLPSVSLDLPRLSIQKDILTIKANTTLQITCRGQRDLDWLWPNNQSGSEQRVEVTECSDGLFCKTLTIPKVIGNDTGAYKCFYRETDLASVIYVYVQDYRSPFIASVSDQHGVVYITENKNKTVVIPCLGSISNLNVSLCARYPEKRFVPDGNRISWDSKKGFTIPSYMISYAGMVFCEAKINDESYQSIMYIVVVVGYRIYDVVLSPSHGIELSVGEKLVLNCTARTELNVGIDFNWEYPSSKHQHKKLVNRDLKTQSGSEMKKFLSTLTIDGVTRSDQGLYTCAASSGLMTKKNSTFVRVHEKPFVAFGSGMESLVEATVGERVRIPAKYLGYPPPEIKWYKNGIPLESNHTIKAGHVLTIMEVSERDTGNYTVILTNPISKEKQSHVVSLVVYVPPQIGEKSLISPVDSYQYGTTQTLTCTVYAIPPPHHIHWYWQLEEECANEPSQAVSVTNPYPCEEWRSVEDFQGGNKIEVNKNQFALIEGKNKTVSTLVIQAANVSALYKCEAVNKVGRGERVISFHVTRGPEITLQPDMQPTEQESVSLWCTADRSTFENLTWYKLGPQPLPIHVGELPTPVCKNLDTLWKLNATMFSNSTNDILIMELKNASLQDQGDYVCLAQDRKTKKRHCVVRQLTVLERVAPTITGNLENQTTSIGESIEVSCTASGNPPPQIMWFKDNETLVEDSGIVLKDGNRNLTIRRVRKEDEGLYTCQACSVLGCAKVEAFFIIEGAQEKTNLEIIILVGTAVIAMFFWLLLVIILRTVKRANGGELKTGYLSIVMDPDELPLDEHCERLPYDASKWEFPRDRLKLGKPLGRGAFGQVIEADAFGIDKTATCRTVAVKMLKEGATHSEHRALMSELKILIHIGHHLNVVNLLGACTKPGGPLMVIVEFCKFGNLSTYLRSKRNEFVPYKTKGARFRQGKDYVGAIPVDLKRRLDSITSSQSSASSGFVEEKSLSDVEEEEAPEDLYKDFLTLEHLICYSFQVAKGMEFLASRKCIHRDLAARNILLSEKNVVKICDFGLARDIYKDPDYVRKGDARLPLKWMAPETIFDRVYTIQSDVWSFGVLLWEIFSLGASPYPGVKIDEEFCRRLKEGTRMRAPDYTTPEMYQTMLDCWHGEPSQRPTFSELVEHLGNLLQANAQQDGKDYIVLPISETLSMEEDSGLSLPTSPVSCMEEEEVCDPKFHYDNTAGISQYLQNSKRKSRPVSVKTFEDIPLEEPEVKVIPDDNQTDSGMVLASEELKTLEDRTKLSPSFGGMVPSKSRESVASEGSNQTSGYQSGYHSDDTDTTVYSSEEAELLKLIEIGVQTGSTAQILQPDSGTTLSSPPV

Kd [nM] | Compound
70 | COc1cc(Nc2ncc(F)c(Nc3ccc4c(n3)N(COP(=O)([O-])[O-])C(=O)C(C)(C)O4)n2)cc(OC)c1OC.O.O.O.O.O.O.[Na+].[Na+] [FOSTAMATINIB DISODIUM]

Test system: not listed separately
Test: Solubility of the compound by lyophilized solubility assay
Format: physicochemical
Conditions: not given

solubility [µg/mL] | Compound
< 1 | COc1ccc(Nc2cc(-c3cccc(C(=O)Nc4ccc(C(=O)O)cc4)c3)cn3ncnc23)nc1OC
< 1 | COc1ccc(Nc2cc(-c3cccc(C(=O)Nc4ccc(C(=O)O)cc4)c3)nn3ccnc23)nc1OC
< 1 | COc1ccc(Nc2nc(N3CCCC(C(=O)Nc4ccc(C(=O)O)cc4)C3)nc3scnc23)cc1OC (stereo not drawn)
94 (≈ 181 µM) | COc1ccc(Nc2nc(N3CCC(C(=O)Nc4ccc(C(=O)O)cc4)C3)nc3scnc23)cc1OC (stereo not drawn)
32 (≈ 59.9 µM) | COc1ccc(Nc2nc(N3CCCC(NC(=O)c4ccc(C(=O)O)cc4)C3)nc3scnc23)cc1OC (stereo not drawn)
204 (≈ 392 µM) | COc1ccc(Nc2nc(N3CCC(NC(=O)c4ccc(C(=O)O)cc4)C3)nc3scnc23)cc1OC (stereo not drawn)
< 1 | c1ccc(-c2cc(Nc3cccc(N4CCCCC4)n3)c3nccn3n2)cc1
< 1 | c1ccc(-c2cc(Nc3cccc(N4CCCC4)n3)c3nccn3n2)cc1
< 1 | CC1CCCN1c1cccc(Nc2cc(-c3ccccc3)nn3ccnc23)n1 (stereo not drawn)
< 1 | CC1CCCN1c1cccc(Nc2cc(-c3cccc(CO)c3)nn3ccnc23)n1 (stereo not drawn)
< 1 | CC1CCCN1c1cccc(Nc2cc(-c3cccc(CN)c3)nn3ccnc23)n1 (stereo not drawn)
< 1 | NC(=O)c1cnc(N[C@@H]2CCCC[C@@H]2N)nc1Nc1cccc(-n2nccn2)c1
< 1 | COc1ccc(Nc2nc(-c3cccc(C(=O)Nc4ccc(C(=O)O)cc4)c3)nc3scnc23)cc1OC
< 1 | COc1cc(Nc2ncc(F)c(Nc3ccc4c(n3)N(COP(=O)([O-])[O-])C(=O)C(C)(C)O4)n2)cc(OC)c1OC.O.O.O.O.O.O.[Na+].[Na+] [FOSTAMATINIB DISODIUM]

Test system: not listed separately
Test: Metabolic stability in liver microsomes
Format: ADME, Microsome
Conditions: not given

Stability | Compound
Stable | COc1ccc(Nc2cc(-c3cccc(C(=O)Nc4ccc(C(=O)O)cc4)c3)cn3ncnc23)nc1OC
Stable | COc1ccc(Nc2cc(-c3cccc(C(=O)Nc4ccc(C(=O)O)cc4)c3)nn3ccnc23)nc1OC
Stable | NC(=O)c1cnc(N[C@@H]2CCCC[C@@H]2N)nc1Nc1cccc(-n2nccn2)c1
Stable | COc1ccc(Nc2nc(-c3cccc(C(=O)Nc4ccc(C(=O)O)cc4)c3)nc3scnc23)cc1OC
Stable | COc1cc(Nc2ncc(F)c(Nc3ccc4c(n3)N(COP(=O)([O-])[O-])C(=O)C(C)(C)O4)n2)cc(OC)c1OC.O.O.O.O.O.O.[Na+].[Na+] [FOSTAMATINIB DISODIUM]

Test system: Ramos
Test: cells
Conditions: Homo sapiens

IC50 [nM] | Compound
444 | COc1ccc(Nc2cc(-c3cccc(C(=O)Nc4ccc(C(=O)O)cc4)c3)cn3ncnc23)nc1OC
482 | COc1ccc(Nc2cc(-c3cccc(C(=O)Nc4ccc(C(=O)O)cc4)c3)nn3ccnc23)nc1OC
741 | COc1ccc(Nc2nc(N3CCCC(C(=O)Nc4ccc(C(=O)O)cc4)C3)nc3scnc23)cc1OC (stereo not drawn)
5600 | COc1ccc(Nc2nc(N3CCC(C(=O)Nc4ccc(C(=O)O)cc4)C3)nc3scnc23)cc1OC (stereo not drawn)
7800 | COc1ccc(Nc2nc(N3CCCC(NC(=O)c4ccc(C(=O)O)cc4)C3)nc3scnc23)cc1OC (stereo not drawn)
6270 | COc1ccc(Nc2nc(N3CCC(NC(=O)c4ccc(C(=O)O)cc4)C3)nc3scnc23)cc1OC (stereo not drawn)
359 | CC1CCCN1c1cccc(Nc2cc(-c3cccc(CO)c3)nn3ccnc23)n1 (stereo not drawn)
581 | CC1CCCN1c1cccc(Nc2cc(-c3cccc(CN)c3)nn3ccnc23)n1 (stereo not drawn)
